Measurements reported in patent publication US6677309B1, “Anti-cancer drug aldehyde conjugate drugs with enhanced cytotoxicity compounds, compositions and methods” (University Technology Corporation, priority 1997, dated 2004).
Like-named read-outs stand apart in the source and are kept apart here.

What was measured:
PC-3 = assay: Prostate cancer cell cytotoxicity, crystal violet assay, PC-3; assay type: cell-based, human
Protocol: (§1) Toxicity to the three prostate cancer cell lines, LNCaP, DU-145, and PC-3 were measured in two different media, RPMI-1640 and DMEM (Dulbecco's Modified Eagle Medium), both supplemented with 10% fetal bovine serum.
(§2) Cell lines were maintained in vitro in RPMI 1640 media or DMEM, each supplemented with 10% fetal bovine serum, 2 mM L-glutamine, 10 mM HEPES buffer, penicillin (100 units/mL) and streptomycin (100 μg/mL).
(§3) Cells were dissociated with trypsin/EDTA, counted, and suspended in growth media (RPMI or DMEM) to a concentration of 5.6×10^3 cells/mL. Cell suspensions were dispensed in 180 μL aliquots into 96-well tissue culture plates. […] Each 100× solution was diluted 10× in growth media (RPMI or DMEM), and a 20 μL aliquot of the resulting 10× solution was immediately (<10s) added to-the appropriate lane. Additionally, one lane was treated with 20 μL of 10% DMSO in growth media (no drug) and one lane was treated with 200 μL of 1.5 M Tris buffer (no cells). The cells were incubated with the drugs for 3 h at 37° C. The drug solutions were then removed and replaced with 200 μL of fresh media. The cells were incubated for 4 days (7 days for PC-3 cells in DMEM) at 37° C. in a humidified atmosphere of 5% CO2 and 95% air. Cell survival was determined using a crystal violet assay as described earlier (Fenick, D. J. et al (1997) J. Med. Chem. 40: 2452-2461).

LNCaP = assay: Prostate cancer cell cytotoxicity, crystal violet assay, LNCaP; assay type: cell-based, human
Protocol: as §1, §2, §3

MCF-7/ADR cells = assay: In vitro cytotoxicity, colony formation by crystal violet assay, MCF-7/ADR
Protocol: (§4) The term IC50 as used herein refers to the concentration of drug which inhibits cell growth by 50%, i.e., 50% of cells are viable at the IC50 concentration relative to a no-drug control.
(§5) Cells were incubated with drug for 3 h in RPMI (Roswell Park Memorial Institute) 1640 media containing 10% fetal bovine serum and 1% DMSO. Plates, were developed using the crystal violet assay. […] In all cases percent survival was determined by the extent of colony formation six days after drug treatment.
(§6) All tissue culture materials were obtained from Gibco Life Technologies (Grand Island, N.Y.) unless otherwise stated. MCF-7 breast cancer cells were obtained from American Type Culture Collection (Rockville, Md.). […] Both cell lines were maintained in vitro by serial culture in phenol red-free RPMI Media 1640 supplemented with 10% fetal bovine serum (Gemini Bio-Products, Calbasas, Calif.), L-glutamine (2 mM), HEPES buffer (10 mM), penicillin (100 units/mL), and streptomycin (100 μg/mL). […] Cells were maintained at 37° C. in a humidified atmosphere of 5% CO2 and 95% air.
(§7) Cells were dissociated with trypsin-EDTA, counted, and suspended in growth media to a concentration of 5×10^3 cells/mL. Cell suspensions were dispensed in 200 μL aliquots into 96-well tissue culture plates. Plates were then incubated for 24 h at 37° C. in a humidified atmosphere of 5% CO2 and 95% air. The media was replaced with 180 μL of growth media prior to addition of the cytotoxic agents.
(§8) Concentrations were then corrected by measuring the solution absorbance at 480 nm (ε=11,500/mole anthracycline). The solutions were then serially diluted in DMSO to give a series of 100× working concentration solutions. For each concentration, the 100× solution was diluted 1:10 in serum-free RPMI Media 1640. 20 μL of the resulting […] solution was immediately added to the appropriate lane. Additionally, one lane was treated with 20 μL of 10% DMSO in serum-free RPMI (no drug) and one lane replaced with 200 μL of 1.5 M Tris buffer (no cells). The cells were incubated at 37° C. for 3 h. The drug solutions were removed and 200 μL of fresh growth media was added to each well.
(§9) The extent of colony formation was determined by use of a crystal violet staining assay (Gilles, R. J. et al. (1986), “Determination of cell number in monolayer cultures,” Anal. Biochem. 159:109-113; Reile, H. et al. (1990), “Computerized determination of growth kinetic curves and doubling times from cells in microcultures,” Anal. Biochem. 187:262-267). […] The cells were then stained with 75 μL of 0.1% crystal violet in deionized water for 30 min. […] The plates were blotted dry and 200 μL of 70% ethanol in water was added to each well to solublize the dye. The plates were stored at 4° C. until solubilization was complete (about 4 h). The optical density of each well was measured on an ELISA plate reader at 588 nm. Relative colony sizes were determined by comparison of the drug treated lanes to the control lanes.
(§10) MCF-7 breast cancer cells were obtained from American Type Culture Collection (Rockville, Md.). MCF-7/ADR adriamycin resistant breast cancer cells were a gift of Dr. William W. Wells (Michigan State University). Both cell lines were maintained in vitro by serial culture in phenol red-free RPMI Media 1640 supplemented with 10% fetal bovine serum (Gemini Bio-Products, Calbasas, Calif.), L-glutamine (2 mM), HEPES buffer ([…]), penicillin (100 units/mL), and streptomycin (100 μg/mL). […] Cells were maintained at 37° C. in a humidified atmosphere of 5% CO2 and 95% air.
These were then diluted 10× with autoclaved Millipore water.

DU-145 = assay: Prostate cancer cell cytotoxicity, crystal violet assay, DU-145; assay type: cell-based, human
Protocol: as §1, §2, §3

MCF-7 cells = assay: In vitro cytotoxicity, colony formation by crystal violet assay, MCF-7
Protocol: as §4, §5, §6, §7, §8, §9, §10
1640 media containing 10% fetal bovine serum. The resulting 90% media/10% DMSO solutions (v/v) were incubated at 37° C. for 6h.

[1] = tested on: self-complementary DNA octamer (GC)4; assay: Drug-DNA conjugate formation with (GC)4, HPLC; assay type: biochemical; details: 5 h
Protocol: The amount of available formaldehyde was 99 μM (3×33 μM). […] The experiment was also run at 25° C. in pH 6.0 phosphate buffer containing 4% DMSO. […] The ratio for conjugate 1 was assumed to be 24:1, based upon the value for conjugate 2. […] Under these circumstances, the conjugate 1 area was estimated based upon its 480 nm absorbance, assuming the 24:1 ratio for A260:A480.
The formation of drug-DNA conjugates at 25° C. was monitored by HPLC (Method II). […] The experiment was also run in pH 6.0 phosphate buffer containing 4% DMSO.

[2] = Homo sapiens, PC-3, DMEM with 10% fetal bovine serum, 3 h drug, 7 days growth, read-out: IC50 Values, PC-3/DMEM (converted)
[3] = Homo sapiens, PC-3, RPMI-1640 with 10% fetal bovine serum, 3 h drug, 4 days growth, read-out: IC50 Values, PC-3/RPMI-1640 (converted)
[4] = Homo sapiens, LNCaP, DMEM with 10% fetal bovine serum, 3 h drug, 4 days growth, read-out: IC50 Values, LNCaP/DMEM (converted)
[5] = Homo sapiens, LNCaP, RPMI-1640 with 10% fetal bovine serum, 3 h drug, 4 days growth, read-out: IC50 Values, LNCaP/RPMI-1640 (converted)
[6] = Homo sapiens, NCI/ADR-RES, read-out: IC50 Values, MCF-7-ADR
[7] = Homo sapiens, DU-145, DMEM with 10% fetal bovine serum, 3 h drug, 4 days growth, read-out: IC50 Values, DU-145/DMEM (converted)
[8] = Homo sapiens, MCF7, read-out: IC50 Values, MCF-7

COc1cccc2c1C(=O)c1c(O)c3c(c(O)c1C2=O)C[C@@](O)(C(=O)CO)C[C@@H]3O[C@H]1C[C@H](N)[C@H](O)[C@H](C)O1 [DOX, doxorubicin, reference compound]
IC50 (PC-3; [2]): 60 nM | IC50 (PC-3; [3]): 30 nM | IC50 (LNCaP; [4]): 15 nM | IC50 (LNCaP; [5]): 20 nM | IC50 (MCF-7/ADR cells; [6]): 10000 nM | IC50 (DU-145; [7]): 60 nM

COc1cccc2c1C(=O)c1c(O)c3c(c(O)c1C2=O)C[C@@](O)(C(=O)CO)C[C@@H]3O[C@H]1C[C@H](N)[C@@H](O)[C@H](C)O1 [EPI, epidoxorubicin, reference compound]
IC50 (PC-3; [2]): 60 nM | IC50 (PC-3; [3]): 30 nM | IC50 (LNCaP; [4]): 20 nM | IC50 (LNCaP; [5]): 20 nM | IC50 (MCF-7/ADR cells; [6]): > 10000 nM | IC50 (DU-145; [7]): 40 nM | IC50 (MCF-7 cells; [8]): 200 nM | IC50 (MCF-7 cells; Homo sapiens, MCF7, read-out: IC50 Values, MCF-7, Media/Serum): > 10000 nM | DNA reacted to form drug-DNA conjugates ([1]; 33 μM (GC)4, 66 μM epidoxorubicin plus 99 μM formaldehyde, pH 6.0, 4% DMSO): 51% | DNA reacted to form drug-DNA conjugates ([1]; 33 μM (GC)4, 66 μM epidoxorubicin plus 99 μM formaldehyde, pH 7.3, 4% DMSO, 25° C.): 75% | DNA reacted to form drug-DNA conjugates ([1]; 166 μM (GC)4, 664 μM epidoxorubicin plus 996 μM HCHO, pH 7.3, 4% DMSO, 25° C.): 93%

C=O [formaldehyde, reference compound]
IC50 (MCF-7/ADR cells; Homo sapiens, NCI/ADR-RES, read-out: IC50 value, control experiment, MCF-7/ADR): > 200000 nM | IC50 (MCF-7 cells; Homo sapiens, MCF7, read-out: IC50 value, control experiment, MCF-7): > 200000 nM

COc1cccc2c1C(=O)c1c(O)c3c(c(O)c1C2=O)C[C@@](O)(C(C)=O)C[C@@H]3O[C@H]1C[C@H](N)[C@H](O)[C@H](C)O1 [DAUN, daunorubicin, reference compound]
IC50 (PC-3; Homo sapiens, PC-3, read-out: IC50 Values, PC-3/DMEM): 20 nM | IC50 (PC-3; Homo sapiens, PC-3, read-out: IC50 Values, PC-3/RPMI-1640): 20 nM | IC50 (LNCaP; Homo sapiens, LNCaP, read-out: IC50 Values, LNCaP/DMEM): 8 nM | IC50 (LNCaP; Homo sapiens, LNCaP, read-out: IC50 Values, LNCaP/RPMI-1640): 20 nM | IC50 (MCF-7/ADR cells; [6]): 2000 nM | IC50 (DU-145; Homo sapiens, DU-145, read-out: IC50 Values, DU-145/DMEM): 25 nM | IC50 (DU-145; Homo sapiens, DU-145, read-out: IC50 Values, DU-145/RPMI-1640): 100 nM | IC50 (MCF-7 cells; [8]): 60 nM

COc1cccc2c1C(=O)c1c(O)c3c(c(O)c1C2=O)C[C@@](O)(C(=O)CO)C[C@@H]3O[C@H]1C[C@H]2[C@@H](OCN3CN2CO[C@H]2[C@H](C)O[C@@H](O[C@H]4C[C@](O)(C(=O)CO)Cc5c(O)c6c(c(O)c54)C(=O)c4c(OC)cccc4C6=O)C[C@@H]23)[C@H](C)O1 [EPIF]
IC50 (PC-3; DMEM with 10% fetal bovine serum, 3 h drug, 7 days growth, read-out: IC50 Values, PC-3/DMEM (converted)): 15 nM | IC50 (PC-3; RPMI-1640 with 10% fetal bovine serum, 3 h drug, 4 days growth, read-out: IC50 Values, PC-3/RPMI-1640 (converted)): 3.5 nM | IC50 (LNCaP; DMEM with 10% fetal bovine serum, 3 h drug, 4 days growth, read-out: IC50 Values, LNCaP/DMEM (converted)): 1 nM | IC50 (LNCaP; RPMI-1640 with 10% fetal bovine serum, 3 h drug, 4 days growth, read-out: IC50 Values, LNCaP/RPMI-1640 (converted)): 3.5 nM | IC50 (MCF-7/ADR cells; read-out: IC50 Values, MCF-7-ADR, EPIF/DMSO, drug stored in DMSO (not dried) for 20 h at ambient temperature before treatment): 150 nM | IC50 (MCF-7/ADR cells; read-out: IC50 Values, MCF-7-ADR, EPIF/H2O, drug preincubated in 90% H2O/10% DMSO at 37° C. for 20 h (equilibrium mixture with intermediates B, C, D)): 200 nM | IC50 (MCF-7/ADR cells; read-out: IC50 Values, MCF-7-ADR, 3 h drug incubation in RPMI 1640, 10% fetal bovine serum, 1% DMSO, colony formation six days after treatment, fresh drug solution): 35 nM | IC50 (MCF-7/ADR cells; read-out: IC50 Values, MCF-7/ADR, Media/Serum, drug preincubated 6 h at 37° C. in 10% DMSO/90% RPMI 1640 containing 10% fetal bovine serum): 150 nM | IC50 (DU-145; DMEM with 10% fetal bovine serum, 3 h drug, 4 days growth, read-out: IC50 Values, DU-145/DMEM (converted)): 4 nM | IC50 (DU-145; RPMI-1640 with 10% fetal bovine serum, 3 h drug, 4 days growth, read-out: IC50 Values, DU-145/RPMI-1640 (converted)): 15 nM | IC50 (MCF-7 cells; read-out: IC50 Values, MCF-7, Media/Serum, drug preincubated 6 h at 37° C. in 10% DMSO/90% RPMI 1640 containing 10% fetal bovine serum): 200 nM | IC50 (MCF-7 cells; read-out: IC50 Values, MCF-7, 3 h drug incubation in RPMI 1640, 10% fetal bovine serum, 1% DMSO, colony formation six days after treatment, fresh drug solution): 32.5 nM
